Reference: patent publication EP1954678B1, “NOVEL NK1 AND NK2 ANTAGONISTS” (Abbott Products GmbH, priority 2005, dated 2007)
Where two headings read alike, the source gives them in different places.

Key:
[1] = target: T1, cloned human NK1 receptors (Homo sapiens, UniProt P25103); experiment: Ca2+ measurements using FLIPR for NK1 activity in CHO cells; assay type: cell-based; conditions: substance P 10^-8 M as agonist; compound applied 7 min before; pA2 calculated from IC50
T1 construct: expressed in transfected cells
T1 sequence (P25103 whole entry): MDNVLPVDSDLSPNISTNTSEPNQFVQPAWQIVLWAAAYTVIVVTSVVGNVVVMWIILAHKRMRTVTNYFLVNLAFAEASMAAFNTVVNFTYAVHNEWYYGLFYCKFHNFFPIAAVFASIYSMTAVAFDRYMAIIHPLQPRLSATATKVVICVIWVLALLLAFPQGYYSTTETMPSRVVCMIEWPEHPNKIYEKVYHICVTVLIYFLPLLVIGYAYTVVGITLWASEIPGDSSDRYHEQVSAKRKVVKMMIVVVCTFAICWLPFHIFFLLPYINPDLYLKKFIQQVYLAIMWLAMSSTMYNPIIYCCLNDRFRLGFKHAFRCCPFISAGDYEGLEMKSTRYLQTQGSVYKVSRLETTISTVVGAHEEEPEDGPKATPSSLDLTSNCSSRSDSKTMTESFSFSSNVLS
Description: The NK receptor is coupled to Gq.
All steps were done under sterile conditions. […] The results are summarized in table 5: Table 5: pA2 data for NK1 and NK2: […]

[2] = target: T2, NK2 receptors (Cavia porcellus, UniProt Q64077); experiment: Functional NK2 antagonism on isolated guinea pig gall-bladder preparations (NKA induced contraction); set-up: from tissue; host or cells: guinea pig gall-bladder preparations; species or system Pirbright-White guinea pigs
T2 sequence (Q64077 1-402): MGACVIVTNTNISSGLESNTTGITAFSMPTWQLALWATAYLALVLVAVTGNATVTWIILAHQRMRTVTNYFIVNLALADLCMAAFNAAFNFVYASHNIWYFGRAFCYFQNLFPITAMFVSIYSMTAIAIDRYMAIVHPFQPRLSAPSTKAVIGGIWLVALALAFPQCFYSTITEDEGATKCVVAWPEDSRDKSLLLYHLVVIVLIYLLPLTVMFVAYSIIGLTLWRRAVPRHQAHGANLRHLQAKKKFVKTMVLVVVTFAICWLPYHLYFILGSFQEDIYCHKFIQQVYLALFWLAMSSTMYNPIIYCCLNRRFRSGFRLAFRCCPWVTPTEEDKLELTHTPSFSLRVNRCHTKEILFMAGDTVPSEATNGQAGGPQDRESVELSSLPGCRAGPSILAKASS
Procedure: The NK2 receptor-antagonising action of the test substances was determined on isolated gall-bladder preparations from Pirbright-White guinea pigs, held in an oxygen-saturated nutrient solution. To this end, the preparations were fastened on one hand in the nutrient solution to organ holders and on the other hand on a force meter by a thread.
The concentration of the test substances was increased iteratively in the subsequent experiments as a function of the result in logarithmic whole or half steps, until at least one concentration above or below 50% inhibition of contraction was determined (up to at most 10^-5 mol/l). For each concentration, the average value of inhibition of contraction was calculated from 2 to 4 preparations. In each case, the concentration of half-maximum inhibition (IC50) per test substance was calculated as characteristic variable.

[3] = target: T3, human NK1 receptors (Homo sapiens, UniProt P25103); experiment: Binding of the test substances to NK1 receptors in vitro ([3H]-Substance P displacement, CHO cell membranes); conditions: [3H]-Substance P as ligand; membranes of CHO cells expressing the human NK1 receptor; Ki calculated from IC50; read-out: pKi (NK1) (converted)
T3 construct: expressed in transfected cells; host or cells: CHO cells (membrane preparation)
T3 sequence (P25103 whole entry): as the sequence (P25103 whole entry) above
Procedure: In The Netherlands, the affinity of the test substances to human NK1 receptors was measured in vitro.
The receptor binding studies were performed with [^3H]-Substance P as ligand. For the binding test, different samples of a membrane preparation of CHO cells (= egg cells of the Chinese hamster, Chinese hamster oocytes), which express the human NK1 receptor ("Accession Number" of the associated nucleic acid sequence = M74290; "Accession Number" of the associated protein sequence = P25103; cf. Takeda, Y.; Chou, K. B., Takeda, J.; Sachais, B.S. and Krause, J. E; Biochemical and Biophysical Research Communications, 179(3) (1991) 1232 - 1240), were incubated with a solution of the marked ligand, with the incubation mixtures containing no test substance or additions of different concentrations of test substance. Then, separation of bound and free ligands was performed in each of the samples with the aid of glass-fibre filtration. The fraction remaining in the filter was washed several times with buffer solution and then the radioactivity of the fraction remaining in the filter was measured using a beta scintillation counter.
For the compounds of Examples 1 to 14, that concentration which effects half maximum displacement of the bound ligand was determined as IC50 of the respective test substance. From this, the corresponding inhibition constant (Ki value) of the test substance was calculated, and was stated as the negative common logarithm of the Ki value (= pKi value). The pKi value is a measurement of the affinity of the test substances to human NK1 receptors.

[4] = target: T2, NK2 receptors; experiment: NK-2-receptor-antagonistic effectiveness in vivo in anaesthetised guinea pigs (NKA test stimulus: late hypotension, bronchoconstriction, colonic pressure); set-up: from tissue; host or cells: whole anaesthetised guinea pig (in vivo); species or system Pirbright-White guinea pigs; conditions: for ED50: guinea pig; for oral activity as NK2 receptor antagonist: result in words, oral administration
Description: The NK-1- and NK-2-antagonistic activities of the test substances were investigated in anaesthetised guinea pigs in each case after intravenous (= i.v.) and oral (= p.o.) administration in vivo. With the present test model it is possible to detect both NK-2-antagonistic effects in three different organ systems (respiratory tracts, colon and circulation) and NK-1-antagonistic effects (rapid drop in blood pressure) in an animal simultaneously.
Pirbright-White guinea pigs of a body weight of 500-700 g were anaesthetised with ketamine/xylazine (67/13 mg/kg subcutaneously, initial dose, further doses administered as required). The animals were provided with an intravenous catheter in order to administer the substance and an intra-arterial catheter to measure the blood pressure. The animals were artificially ventilated via a tracheal cannula and the respiratory pressure was recorded by means of a pressure transducer. A balloon was introduced into the distal colon of the animals for manometric recording of colon motility by means of a pressure transducer. Blood pressure, heart rate, respiratory pressure and colonic pressure were measured continuously for each animal and plotted on a recorder and by means of a digital data-processing system. […] The second phase of delayed hypotension (= phase of maximum hypotension after 2-5 min.) on the other hand is mediated via NK-2 receptors, since they can be blocked by specific NK-2 receptor antagonists. […] Table 6: NK-1- and NK-2-receptor-antagonistic effective-ness of the test substances of Formula I on guinea pigs in vivo after intravenous administration
These ED50 values obtained from cumulative dose effect curves are plotted in table 6.
The antagonistic effects of the test substances were then determined as "area under the curve" ("AUC") over the investigation period after administration of the test substances (1 - 180 min after administration) and the ED50 values after oral administration obtained therefrom were plotted in table 7. Table 7: NK-1- and NK-2-receptor-antagonistic effective-ness of the test substances of Formula I on guinea pigs in vivo after oral administration

[5] = iv, read-out: ED50 iv after 1 min (cumulative) NK2 (broncho-constriction)
[6] = iv, read-out: ED50 iv after 1 min (cumulative) NK2 (colonic motility)
[7] = iv, read-out: ED50 iv after 1 min (cumulative) NK2 (late hypotension)
[8] = oral, from AUC of antagonistic effect 1 - 180 min after administration, read-out: ED50 AUC1-180 min oral NK2 (broncho-constriction)
[9] = oral, from AUC of antagonistic effect 1 - 180 min after administration, read-out: ED50 AUC1-180 min oral NK2 (colonic motility)
[10] = oral, from AUC of antagonistic effect 1 - 180 min after administration, read-out: ED50 AUC1-180 min oral NK2 (late hypotension)

| SMILES | Kb [1] [nM] | IC50 [2] [nM] | Ki [3] [nM] | ED50 [4, 5] [µmol/kg] | ED50 [4, 6] [µmol/kg] | ED50 [4, 7] [µmol/kg] | ED50 [4, 8] [µmol/kg] | ED50 [4, 9] [µmol/kg] | ED50 [4, 10] [µmol/kg] | oral activity as NK2 receptor antagonist [4] |
| --- | --- | --- | --- | --- | --- | --- | --- | --- | --- | --- |
| CN(C[C@@H](CCN1CCN([C@@H](c2ccco2)[C@H](O)CO)CC1)c1ccc(Cl)c(Cl)c1)C(=O)c1cc(C#N)cc2ccccc12 [Compound 1, 3-cyano-N-[(2S)-2-(3,4-dichlorophenyl)-4-{4-[(1R,2S)-1-(2-furyl)-2,3-dihydroxypropyl]piperazin-1-yl}butyl]-N-methyl-1-naphthamide] | 1.26 | 2 | 3.98 | 0.321 | 0.027 | 0.643 | 3.1 | 5.5 | 3.1 | active orally |
| CN(C[C@@H](CCN1CCN([C@@H](c2ccco2)[C@H](O)[C@@H](O)[C@H](O)CO)CC1)c1ccc(Cl)c(Cl)c1)C(=O)c1cc(C#N)cc2ccccc12 [Compound 2, 3-cyano-N-[(2S)-2-(3,4-dichlorophenyl)-4-{4-[(1R,2S,3R,4R)-1-(2-furyl)-2,3,4,5-tetrahydroxypentyl]piperazin-1-yl}butyl]-N-methyl-1-naphthamide] |  | 20 | 3.16 | < 0.01 | 0.085 | 0.106 | 11.7 | 6 | 14.8 | active orally |
| CN(C[C@@H](CCN1CCN(C(CO)(CO)c2ccco2)CC1)c1ccc(Cl)c(Cl)c1)C(=O)c1cc(C#N)cc2ccccc12 [Compound 6, 3-cyano-N-[(2S)-2-(3,4-dichlorophenyl)-4-{4-[1-(2-furyl)-2-hydroxy-1-(hydroxymethyl)ethyl]piperazin-1-yl}butyl]-N-methyl-1-naphthamide] |  | 39.8 | 5.01 | 0.595 | 0.05 | 0.282 |  |  |  |  |
| CN(C[C@@H](CCN1CCN([C@@H](c2ccco2)[C@H]2COC(=O)O2)CC1)c1ccc(Cl)c(Cl)c1)C(=O)c1cc(C#N)cc2ccccc12 [Compound 11, 3-cya no-N-[(2S)-2-(3,4-dichlorophenyl)-4-(4-{(R)-2-furyl[(4S)-2-oxo-1,3-dioxolan-4-yl]methyl}piperazin-1-yl)butyl]-N-methyl-1-naphthamide] |  | 15.8 | 7.94 | 0.13 | 0.132 | 0.145 |  |  |  |  |
